The record followed here is ChEMBL document CHEMBL1201862, “PubChem BioAssay data set” (2004).

Common to all, as to test: inhibition of tumour cell growth, NCI panel, 48 h
Experiment [1] concerns NCI-H460.
Experiment [2] deals with HOP-62.
Experiment [3] relates to SW-620.
Experiment [4] relates to SK-MEL-2.
The test system of experiment [5] is M14.
Experiment [6] has as its system NCI-H226.
Experiment [7] has as its system OVCAR-4.
Experiment [8] concerns TK-10.
Experiment [9] relates to OVCAR-5.
The subject of experiment [10] is CCRF-CEM.
Experiment [11] has as its system SF-268.
Experiment [12] concerns HL-60.
Experiment [13] concerns 786-0.
The test system of experiment [14] is OVCAR-3.
Experiment [15] relates to A549.
Experiment [16] concerns RXF 393.
The subject of experiment [17] is EKVX.
The test system of experiment [18] is K562.
Experiment [19] has as its system SK-MEL-28.
In experiment [20] the test system is DU-145.

Structures are written as SMILES.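 The compound was tested at five concentrations on cells cultured in 96-well plates, with a 48-hour exposure period. At the GI50, growth is halved.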 Calls of active or inactive are those of the source. Rule as the data show it: active = GI50 up to about 1.1 µM and inactive = higher. A value given as a limit tells only on which side of the number the result lay.

For the molecule `O=C(N/C(=C\c1ccc(/C=C(\NC(=O)c2ccccc2)c2nc3ccccc3s2)cc1)c1nc2ccccc2s1)c1ccccc1`, the GI50 was 4.25 µM (inactive) in experiment [1]; 18.4 µM (inactive) in experiment [2]; 3.84 µM (inactive) in [3]; 6.62 µM (inactive) in experiment [4]; 3.42 µM (inactive) in experiment [5]; 19.1 µM (inactive) in experiment [6]. For the same molecule, the GI50 in experiment [7] is 5.08 µM (inactive); in [8], 12.7 µM (inactive); in [9], 17.2 µM (inactive); in experiment [10] it was 1.56 µM (inactive); in experiment [11], 6.3 µM (inactive); in [12], 1.71 µM (inactive). The GI50 is 1.82 µM (inactive) in experiment [13]; 2.78 µM (inactive) in experiment [14]; 13.5 µM (inactive) in experiment [15]; 17.7 µM (inactive) in experiment [16]; 1.83 µM (inactive) in [17]; 5.38 µM (inactive) in experiment [18]. In [19], the GI50 is 11.1 µM (inactive).
`Cc1nc2c(nc1C)C(=O)c1cc(O)ccc1C2=O`: the GI50 was 38.2 µM (inactive) in experiment [1]; 69.5 µM (inactive) in experiment [2]; 61.4 µM (inactive) in experiment [3]; 55.6 µM (inactive) in experiment [4]; > 77.6 µM (inactive) in [5]; > 100 µM (inactive) in experiment [6]. Further, the GI50 was > 85.5 µM (inactive) in [7]; > 100 µM (inactive) in [8]; > 100 µM (inactive) in experiment [9]; 48.9 µM (inactive) in experiment [10]; 74.3 µM (inactive) in [11]; 31 µM (inactive) in experiment [12]. The GI50 in [13] was > 95.5 µM (inactive); in experiment [14], 29.3 µM (inactive); in [15] it was 77.6 µM (inactive); in experiment [16], > 100 µM (inactive); in [17], > 100 µM (inactive); in [18], > 70.3 µM (inactive). The GI50 in experiment [19] was 98.4 µM (inactive).
Regarding `N[C@H](C(=O)O)[C@@H](Cl)CC(=O)O`, the GI50 in experiment [1], in experiment [2], in experiment [3], in experiment [4], in experiment [5] and in experiment [6] was > 100 µM (inactive) throughout. Further, the GI50 in experiment [7], in [8], in experiment [9], in experiment [10], in experiment [11] and in experiment [12] was > 100 µM (inactive) throughout. For the same molecule, the GI50 in experiment [13], in experiment [14], in experiment [15], in experiment [16], in experiment [17] and in experiment [18] was > 100 µM (inactive) each time. Besides, the GI50 in experiment [19] is > 100 µM (inactive).
With `CNCc1cc(OC)ccc1-c1ccc(OC)c(OC)c1OC`, the GI50 was > 92 µM (inactive) in experiment [1]; > 100 µM (inactive) in experiment [2]; > 96.4 µM (inactive) in experiment [3]; > 100 µM (inactive) in experiment [4]; > 100 µM (inactive) in experiment [5]; > 100 µM (inactive) in experiment [6]. The GI50 was > 80.9 µM (inactive) in [7]; > 100 µM (inactive) in experiment [8]; > 100 µM (inactive) in experiment [9]; > 92.9 µM (inactive) in experiment [10]; > 100 µM (inactive) in experiment [11]; 48.1 µM (inactive) in experiment [12]. For the same molecule, the GI50 in experiment [13] is > 100 µM (inactive); in experiment [14], > 70 µM (inactive); in experiment [15] it was > 100 µM (inactive); in [16], 69.7 µM (inactive); in experiment [17], > 74.8 µM (inactive); in experiment [18], 51.9 µM (inactive). Moreover, the GI50 in experiment [19] was > 100 µM (inactive).
For the molecule `CN(C)c1nc(N(C)C)n2nc(-c3ccccc3[N+](=O)[O-])nc2n1`, the GI50 in [1] was 78.7 µM (inactive); in [2] it was > 100 µM (inactive); in experiment [3], 10.1 µM (inactive); in [4], > 100 µM (inactive); in experiment [5], > 100 µM (inactive); in experiment [6], > 100 µM (inactive). Besides, the GI50 in experiment [7], in [8], in experiment [9], in [10], in experiment [11] and in experiment [12] was > 100 µM (inactive) throughout. Further, the GI50 is 49.9 µM (inactive) in experiment [13]; > 100 µM (inactive) in experiment [14]; > 100 µM (inactive) in experiment [15]; > 100 µM (inactive) in [16]; > 100 µM (inactive) in experiment [17]; > 100 µM (inactive) in [18]. The GI50 in experiment [19] is > 100 µM (inactive).
Turning to `Cc1cccc(-c2nnc3s/c(=C\c4ccc(N(C)C)cc4)c(=O)n23)c1`, the GI50 in experiment [1], in experiment [2], in experiment [3], in experiment [4], in [5] and in experiment [6] was > 100 µM (inactive) in each case. The GI50 in experiment [7], in [8], in [9], in experiment [10], in experiment [11] and in experiment [12] was > 100 µM (inactive) in each case. The GI50 in experiment [13], in experiment [14], in [15], in experiment [16], in [17] and in [18] was > 100 µM (inactive) each time. The GI50 in experiment [19] was > 100 µM (inactive).
With `COC(=O)/C(=N\N)C(C(=O)C(=O)Nc1cc(Cl)ccc1Cl)c1nc2ccc([N+](=O)[O-])cc2nc1O` (configuration not stated), the GI50 in [1], in experiment [2], in [3], in experiment [4], in experiment [5] and in experiment [6] was > 100 µM (inactive) each time. For the same molecule, the GI50 in [7], in experiment [8], in experiment [9], in experiment [10], in experiment [11] and in [12] was > 100 µM (inactive) each time. For the same molecule, the GI50 in [13] is > 100 µM (inactive); in [14], 74.3 µM (inactive); in experiment [15], > 100 µM (inactive); in experiment [16], > 100 µM (inactive); in experiment [17], 72.9 µM (inactive); in experiment [18], > 100 µM (inactive). For the same molecule, the GI50 in [19] was > 100 µM (inactive).
Turning to `CCOC(=O)C(CC/C=C\c1ccccc1)N1CCC[C@H]1C(=O)OC` (some centres not stated), the GI50 in [1], in experiment [2], in experiment [3], in experiment [4], in experiment [5] and in experiment [6] was > 100 µM (inactive) in each case. For the same molecule, the GI50 is > 100 µM (inactive) in [7]; > 100 µM (inactive) in experiment [8]; > 100 µM (inactive) in experiment [9]; 94.8 µM (inactive) in [10]; > 100 µM (inactive) in [11]; 35.8 µM (inactive) in experiment [12]. Moreover, the GI50 was > 100 µM (inactive) in experiment [13]; > 100 µM (inactive) in experiment [14]; > 100 µM (inactive) in experiment [15]; > 100 µM (inactive) in [16]; > 100 µM (inactive) in experiment [17]; 49.4 µM (inactive) in experiment [18]. The GI50 in experiment [19] is > 100 µM (inactive).
Take `COC1=CC(=O)[C@]2(C)[C@H](C1=O)C(C)[C@H]2c1ccc(OC)cc1` (some centres not stated): the GI50 in [1], in [2], in [3], in [4], in experiment [5] and in experiment [6] was > 100 µM (inactive) throughout. Besides, the GI50 in experiment [7], in [8], in experiment [9], in experiment [10], in experiment [11] and in experiment [12] was > 100 µM (inactive) in each case. Besides, the GI50 in [13], in experiment [14], in experiment [15], in experiment [16], in experiment [17] and in experiment [18] was > 100 µM (inactive) throughout. Moreover, in experiment [19], the GI50 is > 100 µM (inactive).
In the case of `C=C1C(=O)O[C@H]2C(=O)[C@H](C)CCC/C(C)=C/CC[C@@]3(C)O[C@@H]3C[C@@H]12`, the GI50 in experiment [1] was 15.4 µM (inactive); in experiment [20], 2.56 µM (inactive); in experiment [2], 11.6 µM (inactive); in [3] it was 1.56 µM (inactive); in [4] it was 5.26 µM (inactive); in [5] it was 1.67 µM (inactive). The GI50 in [6] was 17.7 µM (inactive); in experiment [8], 0.135 µM (active); in [9], 5.6 µM (inactive); in [10] it was 1.18 µM (inactive); in [11] it was 4.54 µM (inactive); in [12], 2.72 µM (inactive). Also, the GI50 in [13] was 1.62 µM (inactive); in experiment [14], 1.74 µM (inactive); in [15], 5.82 µM (inactive); in [18] it was 2.07 µM (inactive).
